{"source": "ChEMBL document CHEMBL1151664", "about": "“Antitumor agents, 75. Synthesis of cytotoxic anthraquinones digiferruginol and morindaparvin-B” (1985)", "tested_on": "KB", "assay": "Cytotoxicity against human KB cells", "assay_type": "functional", "conditions": "read-out: ED50 (the source's name)"}
{"smiles": "O=C1c2ccccc2C(=O)c2c1ccc(CO)c2O", "note": "[DIGIFERRUGINOL]", "values": [{"measurement": "EC50", "value": 0.09, "unit": "µg/mL"}]}
